US20070082956A1, “The use of 1-amino-alkylcyclohexane compounds in the treatment of pain hypersensitivity” (MERZ PHARMA GmbH & Co. KGaA, priority 2003, published 2007)

Test system: intradermal capsaicin injection model (secondary hyperalgesia)
Experiment: Human surrogate model of neuropathic pain (intradermal capsaicin injection), placebo-controlled double-blind crossover study
Type: in vivo
Experimental: This surrogate model of neuropathic pain is thus a valid method for early clinical testing of substances for the treatment of neuropathic pain. The efficacy of the neramexane, a moderate affinity, uncompetitive NMDA receptor antagonist, was tested in a placebo-controlled double-blind crossover study in the intradermal capsaicin injection model. Capsaicin (40 μg) was injected intradermally in the skin of the ventral forearm 3 hours after administration of a single oral dose of neramexane hydrochloride (40 mg) or placebo. Changes of pain sensitivity adjacent to the capsaicin injection and in a remote control area were tested in parallel by quantitative sensory testing prior to oral neramexane or placebo, 2½ hours after neramexane or placebo (i.e., prior to capsaicin injection) and 1½ hours after capsaicin injection. The capsaicin injection elicited a strong, over 5-10 min rapidly declining burning pain resulting in enhanced pain sensitivity adjacent to the injection including hyperalgesia to pin prick and pain to light touch (“allodynia”).

CC1(C)CC(C)(C)CC(C)(N)C1 [neramexane, 1-amino-1,3,3,5,5-pentamethylcyclohexane]
size of the capsaicin-induced axon reflex erythema (single oral dose 40 mg): remained unaltered
summation of pain to repetitive pin prick stimulation (trains of 10 stimuli at 1 Hz) (single oral dose 40 mg): never changed
reduction of capsaicin-induced burning pain compared to placebo (single oral dose 40 mg, 2nd-5th min after capsaicin injection, n.s.): 33%
reduction of pain to stroking light touch stimuli (allodynia) (single oral dose 40 mg, across all test times, p=0.07): 22%
reduction of pain of noxious pin pricks compared to placebo (analgesia) (single oral dose 40 mg, control area at any time and test area before capsaicin injection, p<0.001): 27-31%
reduction of pain to stroking light touch stimuli (allodynia) (single oral dose 40 mg, first 30 min after capsaicin injection, p<0.05): 25%
antihyperalgesia alone, calculated from the ratio of test and control area (single oral dose 40 mg, not significant): 9%
reduction of pin prick pain compared to placebo (combined analgesia and antihyperalgesia) (single oral dose 40 mg, test area after capsaicin injection, p<0.001): 39%
reduction of capsaicin-induced burning pain compared to placebo (single oral dose neramexane hydrochloride 40 mg, 3 hours before capsaicin 40 μg intradermal, first minute after injection, p<0.01): 21%
